From patent publication US20070111993A1, “Pharmaceutical composition comprising a salt of mirtazapine” (AKZO NOBEL N.V., priority 2004, published 2007)
Values joined by “and” are separate entries in the source; they are usually repeats but may differ in a detail not shown here. Identical values can stand only once.

Legend:
Assay type in all cases: physicochemical
[1] = Sublimation test (cold finger, HPLC quantification of sublimate); conditions: for Sublimation (result in words): conditions of the sublimation test, non-sublimating = less than 1% in 72 hours at 150 mBar, 60° C.; for Sublimate: drug substance, Pressure: 150 mbar, Test period: 72 hrs
From the text: The property of sublimation can be observed and quantified with known methods to measure sublimation. For example, sublimation can be measured in an apparatus with a chamber in which the test compound is placed in its solid state and maintained in that state by controlled temperature. The gas phase in the chamber, optionally under low pressure, can be analyzed for content of test compound. It is also possible to continuously clear the test compound in the gas phase from the chamber either by a continuous renewal stream of a gas or by creating a sink for the test compound out of the gas phase, for example by a cold surface. The amount of material collected from sublimation or escaped from the sample by sublimation can be analyzed. The degree of sublimation is expressed as the fraction (as percentage) of the initial sample size.
The term ‘non-sublimating’ salt is defined to be a salt of S- or R-mirtazapine, from which less than 1% of the mirtazapine is sublimating from the sample, calculated on the basis of the amount of the base, when a sample of approximately 10 mg (for example an amount between 8-12 mg) is placed for the duration of 72 hours under standard conditions of 150 mBar pressure and 60° C. temperature.
Figure: Schematic presentation of the sublimation test equipment. A sample is placed on the bottom of a vessel, which is closed at the top by a vessel-shaped stopper into which cooling liquid (CL) is circulating and which vessel has an outlet connected to a vacuum pump (Vac). The vessel is placed in a closed chamber under constant temperature control (TC). A sublimate (Subl) can accumulate against the surface of the stopper within the vessel.
A sample (approximately 10 mg) was placed in a sample chamber of sublimation test equipment as illustrated in FIG. 1. The temperature in the sample chamber is controllable. The sample holder has a reduced pressure, which was 150 mBar by default. The sample chamber also consists of a section with reduced temperature (the “cold finger”), where the temperature is approximately 5° C. The majority of material that sublimates in the test sample with high temperature will precipitate on the cold finger. The amount of material on the cold finger after a test period of 72 hrs has been quantified using HPLC analysis. The degree of sublimation is expressed as the fraction material on the cold finger (as percentage) of the initial sample size. Additionally, the sublimation of active compound from tablets “drug product” has been tested.

[2] = Hygroscopicity (dynamic vapor sorption / water uptake from air); conditions: for Hygroscopicity / affinity for water: environmental air, ambient conditions, method not stated; for Hygroscopicity: dynamic vapor sorption measurement
Description: To a solution of 3.01 g of S-mirtazapine in 5 ml of methanol was added at room temperature a solution of 1290 μl of hydrobromic acid in 20 ml of ethyl acetate. […] The mixture was cooled to 0° C. whereupon crystallization started. The white crystals were collected by filtration and were dried in a vacuum oven at 40° C. […] A water free drug substance sample attracts water when it comes in contact with environmental air, while it may loose water upon drying.

[3] = Sublimation observations outside the standard test
[4] = Temperature: 60° C., DL = level of detection

SMILES: CN1CCN2c3ncccc3Cc3ccccc3C2C1.O=C(O)C(F)(F)F (stereo not drawn) [S-mirtazapine trifluoroacetic acid salt]
- Sublimation (result in words) ([1]; listed as trifluoroacetic acid salt of S- or R-mirtazapine, trifluoroacetic acid salt): showed sublimation
- Sublimation (result in words) ([1]; trifluoroacetic acid salt): not a non-sublimating salt

SMILES: CN1CCN2c3ncccc3Cc3ccccc3C2C1.CS(=O)(=O)O (stereo not drawn) [S-mirtazapine•methanesulfonic acid, S-mirtazapine methanesulfonic acid salt]
- Hygroscopicity / affinity for water [2]: non-hygroscopicity
- Sublimation (result in words) [1]: non-sublimation
- Sublimate [1, 4]: 0.1% and 0.0%

SMILES: CN1CCN2c3ncccc3Cc3ccccc3[C@H]2C1.O=C(O)/C=C\C(=O)O [S-mirtazapine•maleic acid, S-mirtazapine maleic acid salt]
- Hygroscopicity [2]: not hygroscopic
- Hygroscopicity / affinity for water [2]: not hygroscopic
- Sublimation (result in words) [1]: do not sublimate

SMILES: CN1CCN2c3ncccc3Cc3ccccc3[C@H]2C1 [S-mirtazapine, 1,2,3,4,10,14b-hexahydro-2-methyl-pyrazino[2,1-a]pyrido[2,3-c][2]benzazepine, reference compound]
- Sublimation at ambient temperature ([3]; ambient temperature): slowly sublimating
- Sublimation (result in words) [1]: sublimates at the conditions used
- Sublimate ([1]; Temperature: 40° C., fraction of initial sample on cold finger, listed as S-mirtazapine Batch E): 0.75%
- Sublimate ([1]; Temperature: 40° C., fraction of initial sample on cold finger, listed as S-mirtazapine Batch J): 0.88%
- Sublimate ([1]; Temperature: 60° C., DL = level of detection, listed as S-mirtazapine Batch E): 5.32% and 2.22%
- Sublimate ([1]; Temperature: 60° C., DL = level of detection, listed as S-mirtazapine Batch J): 4.29%

SMILES: Br.CN1CCN2c3ncccc3Cc3ccccc3[C@H]2C1 [S-mirtazapine•HBr, S-mirtazapine hydrobromic acid salt]
- Hygroscopicity / affinity for water [2]: forms a monohydrate under ambient conditions
- Sublimation (result in words) [1]: do not sublimate

SMILES: CN1CCN2c3ncccc3Cc3ccccc3[C@H]2C1.Cl [S-mirtazapine•HCl, S-mirtazapine hydrochloric acid salt]
- Hygroscopicity [2]: very hygroscopic
- Temperature above which the compound starts to sublime [3]: above 170 °C
- Sublimate [1, 4]: 0.2%

SMILES: CN1CCN2c3ncccc3Cc3ccccc3[C@H]2C1.O=C(O)/C=C/C(=O)O [S-mirtazapine•fumaric acid, S-mirtazapine fumaric acid salt]
- Hygroscopicity / affinity for water [2]: attracts water from environmental air to form a hydrate
- Sublimation (result in words) [1]: do not sublimate
